Assay results published in article PMC11565396 (Journal of Lipid Research, 2024).
Where two headings read alike, the source gives them in different places.

Target: EBOV VP40 (6xHis-VP40) (Ebola virus - Mayinga, Zaire, 1976, UniProt Q05128)
Experiment: biochemical
Type: binding

Chain of EBOV VP40 (6xHis-VP40) (Q05128 whole entry, looked up): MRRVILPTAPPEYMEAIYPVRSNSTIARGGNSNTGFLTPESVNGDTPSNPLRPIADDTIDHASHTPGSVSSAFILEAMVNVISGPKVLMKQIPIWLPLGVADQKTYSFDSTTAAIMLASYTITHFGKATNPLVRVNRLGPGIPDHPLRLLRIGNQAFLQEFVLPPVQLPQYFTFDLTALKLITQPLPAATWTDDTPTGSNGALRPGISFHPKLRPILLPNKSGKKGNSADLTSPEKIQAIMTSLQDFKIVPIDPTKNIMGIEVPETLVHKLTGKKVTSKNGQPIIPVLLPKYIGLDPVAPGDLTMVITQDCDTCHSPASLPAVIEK

Structure (SMILES) | Kd (read-out: Kd (apparent)) | Kd
CCCCCCCC/C=C\CCCCCCCC(=O)OC[C@H](COP(=O)(O)OC[C@H](N)C(=O)O)OC(=O)CCCCCCC/C=C\CCCCCCCC [DOPS] | 311 nM | 
CCCCCCCCCCCCCCCC(=O)OCC(COP(=O)(O)OC[C@H](N)C(=O)O)OC(=O)CCCCCCCCCCCCCCC (stereo partly drawn) [DPPS] | 10 nM | 
CCCCCCCC/C=C\CCCCCCCC(=O)O[C@H](COC(=O)CCCCCCCCCCCCCCC)COP(=O)(O)OC[C@H](N)C(=O)O [POPS] |  | 186 nM
